The text below walks through data of US9476087B2, “Methods and compounds for detecting beta-lactamase activity” (Nanyang Technological University, priority 2008, dated 2016).

Data set [1] deals with β-lactamase producing microorganisms. The settings on record: Hakimelahi et al. 2005; cited from earlier work.
The test system of a further data set is wild type E. coli Bl21. As to the kind of experiment: Nitrocefin colorimetric assay in living bacteria. In kind it is cell-based. As to conditions: nitrocefin 8 μM. As for the experimental part:
(§1) FIG. 22 depicts a colorimetric measurement after mixing nitrocefin with different bacterial suspensions. 1: Nitrocefin solution (8 μM) only; 2: Nitrocefin (8 μM) mixed with wild type E. coli Bl21; 3: Nitrocefin (8 μM) mixed with β-lactam antibiotics resistant E. coli Bl21; 4: Nitrocefin (8 μM) mixed with clinical isolate K. pneumoniae (ATCC 700603) strains. […] There was no color difference between the Bla-encoded E. coli Bl21 and the K. pneumoniae strains.
(§2) Bacterial cells (˜10^8 cfu/mL) were suspended in 1 ml of PBS buffer (pH 7.4) which contained substrates under the room temperature. Nitrocefin solution (from Merck) was incubated with bacteria for further enzyme interactions. The final concentration was maintained at 8 μM, which was the same as the gold nanoparticles based enzymatic assay. After 20 mins interaction and followed by centrifugation, supernatant was applied for colorimetric image. The color change with different bacterial suspensions is depicted in FIG. 22.

The subject of data set [2] is β-lactam antibiotics resistant E. coli Bl21. The data set is described as follows: Nitrocefin colorimetric assay in living bacteria. In kind it is cell-based. As to conditions: nitrocefin 8 μM. As for the experimental part:
as §1, §2

Data set [3] has as its system clinical isolate K. pneumoniae (ATCC 700603). As to the kind of experiment: Nitrocefin colorimetric assay in living bacteria. As to conditions: nitrocefin 8 μM. In kind it is cell-based. Here is the method: as §1, §2
For data set [4], the system named is CC(=O)NC1C(=O)N2C(C(=O)O)=C(CSc3ccc(CC(=O)NCCOCCOCCN)cc3)CSC12. As to the kind of experiment: purified protein, by the assay type. The settings on record: other: 25° C., PBS pH 7.4, β-lactamase 5.0 nM, absorbance change at 650 nm.
Method: The kinetic measurements were carried out at 25° C. in PBS (phosphate buffered saline) buffer at pH 7.4. The absorbance change at 650 nm was measured by means of a UV spectrophotometer.
The rate of enhancement in absorbance at 650 nm was applied to determine the kinetic properties of enzyme hydrolysis. The values of the kinetic parameters (Km and Kcat) were determined from the double-reciprocal plot of the hydrolysis rate versus substrate concentrations (Lineweaver-Burk plot, based on the Michaelis-Menten model).
The kinetic experiments were carried out at 25° C. in PBS buffer with pH 7.4. The absorbance change at 650 nm was measured using a UV spectrophotometer. […] The rate of enhancement in absorbance at 650 nm was applied to determine the kinetic properties of enzyme hydrolysis. The 9 values of the kinetic parameters (Km and Kcat) were determined from the double-reciprocal plot of the hydrolysis rate versus substrate concentrations (Lineweaver-Burk plot).

The term Km denotes the substrate concentration at which the rate is half of its maximum. One may read the kcat as the number of substrate molecules converted per active site and unit of time at saturation.

Take `COC(=O)C1=C(C(=O)OC(Cl)(Cl)C(Cl)(Cl)OC(=O)C2=C(c3ccccc3)C[C@@H]3[C@@H](NC(=O)Cc4ccccc4)C(=O)N23)N2C(=O)[C@@H](NC(=O)Cc3ccccc3)[C@H]2C1` (relative stereo) [(5R,6S)-rel-7-oxo-6-[(phenylacetyl)amino]-1-azabicyclo[3.2.0]hept-2-ene-2,3-dicarboxylic acid 3-methyl 2-[1,1,2,2-tetrachloro-2-[[[(5R,6R)-7-oxo-3-phenyl-6-[(phenylacetyl)amino]-1-azabicyclo[3.2.0]hept-2-en-2-yl]carbonyl]oxy]ethyl]ester]: in data set [1], the “activity against β-lactamase producing microorganisms” value is listed as “excellent activity”.
For the compound `O=C(Cc1cccs1)N[C@@H]1C(=O)N2C(C(=O)O)=C(/C=C/c3ccc([N+](=O)[O-])cc3[N+](=O)[O-])CS[C@H]12` [nitrocefin], the “color of nitrocefin solution” value with wild type E. coli Bl21 is on record as “pink color was also detected”. In addition, the “color change of nitrocefin solution” value in data set [2] and in data set [3] was “color change from yellow to pink” each time.
Consider β-lactamase (Escherichia coli), for which, in data set [4], the Km was 14.1 µM and the kcat is 22.7 s⁻¹.
